# In patent US9266829B2, “Quinone compounds and their uses for the treatment of cancer” (Onco-NX Limited, priority 2012, dated 2016):
# Key:
# physchem = format: physicochemical
# Procedure: The stability of esters and their hydrolysis products was measured in solution. (50 μM Es5 in Tris buffer (0.1 mol dm^−3) at pH 7.4). Samples were taken at timed intervals up to 24 hours and analysed by HPLC. The detection wavelength was 330 nm. Chromatographic analysis was carried out by isocratic elution with 30:70 MeOH: Tris buffer (0.1 mol dm^−3, pH 7.4), at 1 ml min^−1. The chromatographic separation of the drug was achieved using a Hypersil ODS column with 250 mm×4.6 mm I.D.
# [1] = system: DT-diaphorase null MDA 468 cells; assay: Apoptosis by Annexin V binding, DT-diaphorase null MDA 468 cells; format: cell-based, human
# Procedure: (§1) Based on the method described in Martin et al. (Journal of Experimental Medicine. 182, 1545-1556. 1995), the induction of apoptosis caused by the compounds of the present invention was determined.
# [2] = system: DT-diaphorase expressing cells; assay: Apoptosis by Annexin V binding, DT-diaphorase expressing cells; format: cell-based, human
# Procedure: as §1
compound,measurement,setting,value
"CC(=O)OCCCC1=C(N2CC2)C(=O)C(C)=C(N2CC2)C1=O [Es5, Acetic Acid 3-(2,5-bis-aziridin-1-yl-4-methyl-3,6-dioxo-cyclohexa-1,4-dienyl)-propyl ester]",more stable than other esters based on RH1,physchem,> 20 times
same,half-life at 50 μM,"physchem; buffer, pH 7.4",> 24 h
same,apoptosis (Annexin V binding) at 2 hours,[1]; 2 hours,no death is seen
same,apoptosis (Annexin V binding) after 4 hrs,[1]; after 4 hrs,reduced level of apoptosis
same,time to induction of programmed cell death (Annexin V binding),[2],≤ 2 h
